Assay results reported in US5451569A, “Pulmonary drug delivery system” (Hong Kong University of Science and Technology R & D …, priority 1994, dated 1995).

Legend:
rats [1] = assay: Urine osmolarity and urine volume after tracheal instillation of AVP during 5% glucose infusion; assay type: in vivo, rat; conditions: 0.6 units AVP by tracheal instillation after 30 minutes of 5% glucose infusion at 10 ml/hr
Experimental: The trachea was cannulated for drug delivery.
This example illustrates the effect of surfactant on pulmonary vasopressin (AVP) absorption. The experimental details were as follows. 5% glucose was infused at 10 ml/hr throughout the experiment. Urine osmolarity and urine volume resulting from glucose administration alone was contrasted with (1) a delivery of 0.6 units AVP, and (2) delivery of 0.6 units of AVP with 60 μl of surfactant (at a concentration of 40 mg/ml). In (1) and (2) the delivery of AVP and AVP with surfactant was by instillation through the trachea after 30 minutes of glucose infusion which infusion continued. FIGS. 3(a) and (b) show the results in term of urine osmolarity and volume respectively. Infusion of 5% glucose should have the effect of decreasing urine osmolarity and increasing urine volume.

rats [2] = assay: Blood glucose after intravenous or tracheal delivery of insulin in cannulated rats
Experimental: A sufficient number of rats weighing between 350-400 g were selected. In each rat the carotid artery and jugular vein were cannulated for blood sampling and fluid infusion. The trachea was cannulated for drug delivery. Fluids given through the trachea were either in a volume of 100 μl or 200 μl given in two separate doses 30 minutes apart. 40 μl of insulin (at a concentration of 200 units/ml) was mixed with 60 μl of lung surfactant (at a concentration of 40 mg/ml) and was administered by the tracheal route. Insulin without surfactant was administered intravenously to a control sample.

## NC(=O)CC[C@@H]1NC(=O)[C@H](Cc2ccccc2)NC(=O)[C@H](Cc2ccc(O)cc2)NC(=O)[C@@H](N)CSSC[C@@H](C(=O)N2CCC[C@H]2C(=O)N[C@@H](CCCN=C(N)N)C(=O)NCC(N)=O)NC(=O)[C@H](CC(N)=O)NC1=O [AVP, vasopressin]
Rats [1]; FIG. 3(a)
  effect on urine osmolarity: increases urine osmolarity
Rats [1]; FIG. 3(b)
  effect on urine volume: reduces urine volume

## insulin
Rats [2]; intravenous insulin, FIG. 1(a)
  time after which glucose concentration begins to rise again: approximately 60 mins
Rats [2]; tracheal delivery of 8 units (40 μl of 200 units/ml), hypoglycemic effect, FIG. 1(b)
  intravenous insulin dose equivalent to tracheal delivery of 8 units of insulin: 0.5 units
Rats [2]; tracheal delivery of 8 units, estimated from the equivalent intravenous dose
  share of insulin that enters the bloodstream: about 6.25%
Rats [2]; tracheal delivery, over a three hour period, FIG. 1(b)
  duration of hypoglycemic effect: no significant increase in glucose concentration
